From US10800792B2, “Inhibitors of Bruton's tyrosine kinase and method of their use” (JANSSEN PHARMACEUTICA NV, priority 2015, dated 2020)

Biological target: unphosphorylated-BTK kinase domain (UP-BTK), GST-tagged human BTK (389-659aa) (Homo sapiens (Human), UniProt Q06187)
Assay: BTK kinase Lanthascreen binding assay
Details: Lanthascreen tracer competition, 60 minutes incubation, pIC50 = negative log of the IC50 in molar
Summary of the method: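 Compound binding to the unphosphorylated kinase domain was monitored by displacement of a fluorescently labelled tracer in a Lanthascreen format. Potency is given as pIC50, the negative log of the molar IC50.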

unphosphorylated-BTK kinase domain (UP-BTK), GST-tagged human BTK (389-659aa), sequence (Q06187 389-659): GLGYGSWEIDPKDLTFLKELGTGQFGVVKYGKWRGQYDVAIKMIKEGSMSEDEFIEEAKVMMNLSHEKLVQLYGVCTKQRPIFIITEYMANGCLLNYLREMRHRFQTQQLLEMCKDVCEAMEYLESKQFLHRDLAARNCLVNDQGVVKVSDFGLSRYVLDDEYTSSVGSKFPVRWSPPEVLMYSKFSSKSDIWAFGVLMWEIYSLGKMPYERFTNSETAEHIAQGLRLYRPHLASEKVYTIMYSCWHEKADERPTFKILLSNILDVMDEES

| Structure (SMILES) | BTK_I_binding pIC50 | IC50 (read-out: BTK_I_binding pIC50 (converted)) [nM] |
| --- | --- | --- |
| Cc1cc(Oc2ccccc2)ccc1N1C(=O)Nc2c(C(=O)N[C@H]3CCCN(C#N)C3)sc3nccc1c23 [Example 887, (S)—N-(1-Cyanopiperidin-3-yl)-5-(2-methyl-4-phenoxyphenyl)-4-oxo-4,5-dihydro-3H-1-thia-3,5,8-triazaacenaphthylene-2-carboxamide] | 7.0 | – |
| CC(=O)N1CC[C@@H](NC(=O)c2sc3nccc4c3c2NC(=O)N4c2ccc(Oc3ccccc3)cc2)C1 [Example 888, (R)—N-(1-Acetylpyrrolidin-3-yl)-4-oxo-5-(4-phenoxyphenyl)-4,5-dihydro-3H-1-thia-3,5,8-triazaacenaphthylene-2-carboxamide] | 7.0 | – |
| Cc1cc(Oc2ccccc2)ccc1N1C(=O)Nc2c(C(=O)NC3CCCNC3)sc3nccc1c23 (stereo not shown) [Example 889, 5-(2-methyl-4-phenoxyphenyl)-4-oxo-N-(piperidin-3-yl)-4,5-dihydro-3H-1-thia-3,5,8-triazaacenaphthylene-2-carboxamide] | 7.0 | – |
| Cc1cc(Oc2ccccc2)ccc1N1C(=O)Nc2c(C(=O)NC3CCCN(C#N)C3)sc3nccc1c23 (stereo not shown) [Example 890, N-(1-Cyanopiperidin-3-yl)-5-(2-methyl-4-phenoxyphenyl)-4-oxo-4,5-dihydro-3H-1-thia-3,5,8-triazaacenaphthylene-2-carboxamide] | 7.0 | – |
| CCC(=O)N1CCC[C@H](NC(=O)c2sc3nccc4c3c2NC(=O)N4c2ccc(Oc3ccccc3)cc2C)C1 [Example 891, (S)-5-(2-Methyl-4-phenoxyphenyl)-4-oxo-N-(1-propionylpiperidin-3-yl)-4,5-dihydro-3H-1-thia-3,5,8-triazaacenaphthylene-2-carboxamide] | 7.0 | – |
| Cc1cc(Oc2ccccc2)ccc1N1C(=O)Nc2c(C(=O)N[C@H]3CCCN(C(=O)CC#N)C3)sc3nccc1c23 [Example 892, (S)—N-(1-(2-Cyanoacetyl)piperidin-3-yl)-5-(2-methyl-4-phenoxyphenyl)-4-oxo-4,5-dihydro-3H-1-thia-3,5,8-triazaacenaphthylene-2-carboxamide] | 7.0 | – |
| Cc1cc(Oc2ccccc2)ccc1N1C(=O)Nc2c(C(=O)N[C@@H]3CCCN(C(=O)[C@@H]4CCCN4)C3)sc3nccc1c23 [Example 893, 5-(2-Methyl-4-phenoxyphenyl)-4-oxo-N—((R)-1-((S)-pyrrolidine-2-carbonyl)piperidin-3-yl)-4,5-dihydro-3H-1-thia-3,5,8-triazaacenaphthylene-2-carboxamide] | – | 100 |
| C=CC(=O)N1CCC[C@@H](NC(=O)c2sc3nccc4c3c2NC(=O)N4c2ccc(Oc3cccc(COc4ccccc4C#N)c3)cc2C)C1 [Example 894, (R)—N-(1-Acryloylpiperidin-3-yl)-5-(4-(3-((2-cyanophenoxy)methyl)phenoxy)-2-methylphenyl)-4-oxo-4,5-dihydro-3H-1-thia-3,5,8-triazaacenaphthylene-2-carboxamide] | 7.0 | – |
| Cc1cc(C(=O)Nc2cc(C(F)(F)F)ccn2)ccc1N1C(=O)Nc2c(C(=O)N[C@H]3CCCN(C(=O)/C(C#N)=C/C4CC4)C3)sc3nccc1c23 [Example 895, (S,E)-N-(1-(2-Cyano-3-cyclopropylacryloyl)piperidin-3-yl)-5-(2-methyl-4-((4-(trifluoromethyl)pyridin-2-yl)carbamoyl)phenyl)-4-oxo-4,5-dihydro-3H-1-thia-3,5,8-triazaacenaphthylene-2-carboxamide] | 7.0 | – |
| COc1ccccc1Oc1ccc(N2C(=O)Nc3c(C(=O)NC4CCCN(C(=O)/C(C#N)=C/C(C)(C)C)C4)sc4nccc2c34)c(C)c1 (stereo not shown) [Example 896, (E)-N-(1-(2-Cyano-4,4-dimethylpent-2-enoyl)piperidin-3-yl)-5-(4-(2-methoxyphenoxy)-2-methylphenyl)-4-oxo-4,5-dihydro-3H-1-thia-3,5,8-triazaacenaphthylene-2-carboxamide] | 6.9 | – |
